# Assay results reported in ChEMBL document CHEMBL3091331, “Aminothiazole-featured pirinixic acid derivatives as dual 5-lipoxygenase and microsomal prostaglandin E2 synthase-1 inhibitors with improved potency and efficiency in vivo” (J Med Chem, 2013).
# Activity calls are given as the source filed them. The rule behind the calls is not given here.
# Legend:
# [1] = molecular target: T1, Polyunsaturated fatty acid 5-lipoxygenase (Homo sapiens, UniProt P09917); assay: Inhibition of human recombinant 5-lipoxygenase expressed in Escherichia coli BL21 using arachidonic acid as substrate incubated 5 to 10 mins prior to substrate addition measured after 10 mins by HPLC analysis
# T1 sequence (P09917 whole entry): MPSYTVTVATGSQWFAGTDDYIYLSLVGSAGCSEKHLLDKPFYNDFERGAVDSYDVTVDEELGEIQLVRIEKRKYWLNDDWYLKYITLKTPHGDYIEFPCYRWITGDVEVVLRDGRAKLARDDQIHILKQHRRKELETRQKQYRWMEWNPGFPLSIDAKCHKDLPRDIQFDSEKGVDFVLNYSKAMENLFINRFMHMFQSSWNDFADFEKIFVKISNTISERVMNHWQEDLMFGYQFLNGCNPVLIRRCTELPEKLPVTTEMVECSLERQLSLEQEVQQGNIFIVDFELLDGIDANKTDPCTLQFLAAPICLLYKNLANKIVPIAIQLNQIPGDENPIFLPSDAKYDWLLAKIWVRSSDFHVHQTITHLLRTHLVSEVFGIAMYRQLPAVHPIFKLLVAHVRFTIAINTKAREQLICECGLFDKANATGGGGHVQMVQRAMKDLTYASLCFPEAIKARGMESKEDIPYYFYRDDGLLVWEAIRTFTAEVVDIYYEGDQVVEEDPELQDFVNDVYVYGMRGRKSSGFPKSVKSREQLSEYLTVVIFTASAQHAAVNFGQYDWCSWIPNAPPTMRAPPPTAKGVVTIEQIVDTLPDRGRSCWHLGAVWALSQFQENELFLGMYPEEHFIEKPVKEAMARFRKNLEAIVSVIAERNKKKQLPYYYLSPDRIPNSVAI
# [2] = molecular target: T2, Prostaglandin G/H synthase 1 (Ovis aries) (UniProt P05979); assay: Inhibition of ovine COX1 using arachidonic acid as substrate at 10 uM incubated 5 mins prior to substrate addition measured after 5 mins by HPLC analysis
# T2 sequence (whole entry): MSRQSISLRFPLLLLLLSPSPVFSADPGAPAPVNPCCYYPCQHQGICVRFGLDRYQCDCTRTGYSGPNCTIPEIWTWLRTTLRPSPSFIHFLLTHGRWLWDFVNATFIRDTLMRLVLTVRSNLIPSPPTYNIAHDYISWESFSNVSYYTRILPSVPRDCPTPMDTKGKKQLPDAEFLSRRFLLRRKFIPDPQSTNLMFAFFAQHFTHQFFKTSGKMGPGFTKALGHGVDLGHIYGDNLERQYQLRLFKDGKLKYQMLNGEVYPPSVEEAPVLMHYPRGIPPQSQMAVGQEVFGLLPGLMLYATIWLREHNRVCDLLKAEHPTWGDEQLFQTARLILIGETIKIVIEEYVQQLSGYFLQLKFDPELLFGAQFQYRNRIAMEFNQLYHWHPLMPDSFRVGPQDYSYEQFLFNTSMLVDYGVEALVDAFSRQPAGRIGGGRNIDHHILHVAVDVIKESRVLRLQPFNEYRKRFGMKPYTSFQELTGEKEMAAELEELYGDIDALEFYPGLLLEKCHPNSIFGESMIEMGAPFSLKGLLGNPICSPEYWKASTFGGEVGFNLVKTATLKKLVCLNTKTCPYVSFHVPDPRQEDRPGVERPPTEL
# Mus musculus [3] = assay: Antiinflammatory activity in CD-1 mouse peritonitis model assessed as reduction in myeloperoxidase activity at 10 mg/kg, ip administered 30 mins prior to zymosan-challenge measured after 4 hrs by spectrophotometry relative to vehicle-treated control; type: functional; conditions: CD-1, ip, route intraperitoneal
# Prostaglandin E synthase = molecular target: T3, Prostaglandin E synthase (Homo sapiens, UniProt O14684); assay: Inhibition of mPGES-1 from human A549 cell microsomal membranes using PGH2 as substrate incubated 15 mins prior to substrate addition measured after 1 min by RP-HPLC analysis
# T3 sequence (O14684 whole entry): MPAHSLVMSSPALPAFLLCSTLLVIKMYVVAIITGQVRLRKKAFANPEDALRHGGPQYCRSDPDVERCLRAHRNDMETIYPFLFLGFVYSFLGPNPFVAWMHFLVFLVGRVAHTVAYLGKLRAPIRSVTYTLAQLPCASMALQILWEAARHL
# Mus musculus [4] = assay: Reduction of LTC4 formation in CD-1 mouse peritonitis model at 10 mg/kg, ip administered 30 mins prior to zymosan-challenge measured after 30 mins by EIA relative to vehicle-treated control; type: functional; conditions: CD-1, ip, route intraperitoneal
# [5] = (§1) Inhibition of reactive oxygen species generation in fMLP-stimulated human polymorphonuclear leukocytes incubated for 15 mins prior to fMLP-challenge by fluorescence assay; type: functional
# Homo sapiens [6] = species on record: Homo sapiens; assay: as §1; type: functional
# [7] = molecular target: MAP kinase p38 (Homo sapiens) (UniProt O15264+Q15759+Q16539+P53778); assay: Inhibition of fMLP-mediated p38 MAPK phosphorylation in human polymorphonuclear leukocytes incubated for 15 mins prior to fMLP-challenge measured after 1.5 mins by SDS-PAGE analysis; type: cell-based
# [8] = Cytotoxicity against human polymorphonuclear leukocytes at 10 uM after 1 hr by light microscopic analysis
# [9] = molecular target: Mitogen-activated protein kinase 1 (Homo sapiens) (UniProt P28482); assay: Inhibition of fMLP-mediated ERK2 phosphorylation in human polymorphonuclear leukocytes incubated for 15 mins prior to fMLP-challenge measured after 1.5 mins by SDS-PAGE analysis; type: cell-based
# Mitogen-activated protein kinase 1 (Homo sapiens), sequence (P28482 whole entry): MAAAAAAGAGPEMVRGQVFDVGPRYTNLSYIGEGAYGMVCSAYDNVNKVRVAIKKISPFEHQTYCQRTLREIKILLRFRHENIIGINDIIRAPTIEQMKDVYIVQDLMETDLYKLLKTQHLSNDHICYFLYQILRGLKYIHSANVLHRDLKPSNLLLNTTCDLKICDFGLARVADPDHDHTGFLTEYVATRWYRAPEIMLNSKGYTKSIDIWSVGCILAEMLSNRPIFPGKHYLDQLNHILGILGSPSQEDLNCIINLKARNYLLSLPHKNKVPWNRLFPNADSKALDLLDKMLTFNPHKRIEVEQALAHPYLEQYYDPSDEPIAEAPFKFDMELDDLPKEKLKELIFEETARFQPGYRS
# [10] = system: Radical scavenging activity; assay: Antioxidant activity assessed as DPPH radical scavenging activity at 10 uM after 30 mins; type: functional
# Homo sapiens [11] = species on record: Homo sapiens; assay: Translocation of 5-lipoxygenase from cytosol into nuclear membrane in A23187-stimulated human polymorphonuclear leukocytes assessed as enzyme product formation at 10 uM incubated for 15 mins prior to A23187-challenge measured after 5 mins by Western blotting analysis; type: functional
# [12] = Metabolic stability in Sprague-Dawley rat liver microsomes assessed as compound remaining at 10 uM after 60 mins by HPLC analysis; type: ADME; conditions: read-out: Stability
# [13] = molecular target: T1, Polyunsaturated fatty acid 5-lipoxygenase; assay: Inhibition of 5-lipoxygenase in A23187-stimulated human polymorphonuclear leukocytes using arachidonic acid as substrate incubated 15 mins prior to substrate addition measured after 10 mins by HPLC analysis
# [14] = Cytotoxicity against human polymorphonuclear leukocytes at 10 uM after 1 hr by trypan blue staining
# Mus musculus [15] = assay: Reduction of 6-keto […] formation in CD-1 mouse peritonitis model at 10 mg/kg, ip administered 30 mins prior to zymosan-challenge measured after 4 hrs by EIA (reference value: 3.89 +/- 0.58 ng/ml); type: functional, organism-based; design: dose 10 mg/kg
# Mus musculus [16] = assay: Antiinflammatory activity in CD-1 mouse peritonitis model assessed as reduction in vascular permeability at 10 mg/kg, ip administered 30 mins prior to zymosan-challenge measured after 4 hrs relative to vehicle-treated control; type: functional; conditions: CD-1, ip, route intraperitoneal
compound,measurement,setting,value
CCCCCCC(Sc1nc(Cl)cc(Nc2nc(-c3ccc4ccccc4c3)cs2)n1)C(=O)O (racemic),IC50,[1],300 nM
same,inhibition,[2],39%
same,inhibition in vivo at 10 mg/kg,Mus musculus [3],23%
same,IC50,Prostaglandin E synthase,400 nM
same,inhibition in vivo at 10 mg/kg,Mus musculus [4],84%
same,IC50,[5],3000 nM
same,inhibition,Homo sapiens [6],Dose-dependent effect
same,inhibition,[7],inactive
same,Activity,[8],Non-toxic
same,inhibition,[9],inactive
same,Activity,[10],inactive
same,Activity,Homo sapiens [11],inactive
same,"remaining at 1 h, 10 µM",[12],77%
same,IC50,[13],200 nM
same,Activity,[14],Non-toxic
same,inhibition,Mus musculus [15],inactive
same,inhibition in vivo at 10 mg/kg,Mus musculus [16],57%
